For experiment [1], the target named is T1, aggregated synthetic Aβ40 (Homo sapiens, UniProt P05067).
T1 construct: Synthetic Aβ40 is aggregated at a concentration of 50 μM
In words: Thiazin-red R displacement fluorescence assay on aggregated A-beta. Type of experiment: binding. The conditions noted are these: displacement of Thiazin-red R from aggregated Aβ40; compound 0.3 nM to 10000 nM; 30 min room temperature; Ex 531 nm/Em 595 nm.

The target in experiment [2] is T2, aggregated recombinant human-microtubule associated protein Tau (Homo sapiens, UniProt P10636).
T2 construct: Recombinant human-microtubule associated protein Tau purified from E. coli is aggregated at a concentration of 5 μM with Arachidonic Acid (100 μM) in Tris 10 mM pH8, 24 h at 37° C
T2 sequence (P10636 whole entry): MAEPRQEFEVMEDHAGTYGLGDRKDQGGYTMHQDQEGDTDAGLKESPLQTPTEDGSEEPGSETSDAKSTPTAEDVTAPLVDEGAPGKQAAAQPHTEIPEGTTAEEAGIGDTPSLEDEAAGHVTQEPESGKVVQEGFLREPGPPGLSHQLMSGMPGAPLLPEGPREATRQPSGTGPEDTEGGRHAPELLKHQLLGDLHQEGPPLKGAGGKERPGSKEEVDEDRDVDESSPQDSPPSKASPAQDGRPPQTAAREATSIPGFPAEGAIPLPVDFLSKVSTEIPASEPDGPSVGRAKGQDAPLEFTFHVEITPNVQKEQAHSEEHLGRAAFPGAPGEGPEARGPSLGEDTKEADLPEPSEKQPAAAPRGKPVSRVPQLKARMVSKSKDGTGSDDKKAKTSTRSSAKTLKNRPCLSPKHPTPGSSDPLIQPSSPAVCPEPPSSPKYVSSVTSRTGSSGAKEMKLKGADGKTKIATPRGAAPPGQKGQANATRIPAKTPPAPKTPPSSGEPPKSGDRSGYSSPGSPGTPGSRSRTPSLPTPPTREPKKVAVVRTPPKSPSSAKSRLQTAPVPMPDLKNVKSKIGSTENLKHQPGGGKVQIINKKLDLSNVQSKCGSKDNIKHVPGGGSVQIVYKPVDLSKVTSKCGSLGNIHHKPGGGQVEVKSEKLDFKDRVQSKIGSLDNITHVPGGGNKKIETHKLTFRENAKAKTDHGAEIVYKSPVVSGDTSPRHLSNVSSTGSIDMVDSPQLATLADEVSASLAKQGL
In words: Thiazin-red R displacement fluorescence assay on aggregated Tau. The conditions noted are these: displacement of Thiazin-red R from aggregated Tau; compound 0.3 nM to 10000 nM; 30 min room temperature; Ex 531 nm/Em 595 nm. Type of experiment: binding.

For orientation: IC50 means the concentration that inhibits the measured activity by half.

T1 sequence (P05067 672-711 limits assumed): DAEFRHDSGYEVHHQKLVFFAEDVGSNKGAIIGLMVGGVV

As for `COc1cc(/C=c2\sc3nc(-c4ccnc(C)c4)cn3c2=O)cc(Br)c1O` [Example 77, 2-[1-(3-Bromo-4-hydroxy-5-methoxy-phenyl)-meth-(Z)-ylidene]-6-(2-methylpyridin-4-yl)-imidazo[2,1-b]thiazol-3-one], the IC50 in experiment [1] worked out at 76 nM; in experiment [2] it was 1 nM.
In the case of `COc1cc(/C=c2\sc3nc(-c4cccnc4)cn3c2=O)cc(Cl)c1O` [Example 78, 2-[1-(3-Chloro-4-hydroxy-5-methoxy-phenyl)-meth-(Z)-ylidene]-6-(pyridin-3-yl)-imidazo[2,1-b]thiazol-3-one], the half-maximal inhibitory concentration (IC50) in experiment [1] was determined as 700 nM; in experiment [2] it was 10.4 nM.
The corresponding values for `COc1cc(/C=c2\sc3nc(-c4ccc(OCCF)cc4)cn3c2=O)cc(Cl)c1O` [Example 79, 2-[1-(3-Chloro-4-hydroxy-5-methoxy-phenyl)-meth-(Z)-ylidene]-6-(4-(2-fluoroethoxyl)phenyl)-imidazo[2,1-b]thiazol-3-one] are 25 nM and 6 nM.
As to `C=CCOc1cccc(-c2cn3c(=O)/c(=C/c4cc(Cl)c(O)c(OC)c4)sc3n2)c1` [Example 80, 2-[1-(3-Chloro-4-hydroxy-5-methoxy-phenyl)-meth-(Z)-ylidene]-6-(3-(allyloxy)phenyl)-imidazo[2,1-b]thiazol-3-one], the half-maximal inhibitory concentration (IC50) in experiment [1] turned out to be 20 nM; in experiment [2], 6 nM.
The corresponding values for `COc1cc(/C=c2\sc3nc(-c4cc(C)on4)cn3c2=O)cc(Cl)c1O` [Example 84, 2-[1-(3-Chloro-4-hydroxy-5-methoxy-phenyl)-meth-(Z)-ylidene]-6-(5-methyl-isoxazol-3-yl)-imidazo[2,1-b]thiazol-3-one] are 990 nM and 18 nM.
The corresponding values for `COc1cc(/C=c2\sc3nc(-c4cc(Br)cc(C#N)c4)cn3c2=O)cc(Cl)c1O` [Example 85, 3-Bromo-5-{2-[1-(3-chloro-4-hydroxy-5-methoxy-phenyl)-meth-(Z)-ylidene]-3-oxo-2,3-dihydro-imidazo[2,1-b]thiazol-6-yl}-benzonitrile] are 1730 nM and 0.8 nM.
The corresponding values for `COc1cc(/C=c2\sc3nc(-c4cccc(C(N)=O)c4)cn3c2=O)cc(Cl)c1O` [Example 86, 3-{2-[1-(3-Chloro-4-hydroxy-5-methoxy-phenyl)-meth-(Z)-ylidene]-3-oxo-2,3-dihydro-imidazo[2,1-b]thiazol-6-yl}-benzamide] are 1240 nM and 1 nM.
In the case of `COc1cc(/C=c2\sc3nc(-c4ccc(C#N)cc4)cn3c2=O)cc(Cl)c1O` [Example 87, 4-{2-[1-(3-Chloro-4-hydroxy-5-methoxy-phenyl)-meth-(Z)-ylidene]-3-oxo-2,3-dihydro-imidazo[2,1-b]thiazol-6-yl}-benzonitrile], the IC50 in experiment [1] was found to be 6 nM; in experiment [2], 0.3 nM.
The corresponding values for `COc1cc(/C=c2\sc3nc(-c4ccc(OC(F)F)cc4)cn3c2=O)cc(Cl)c1O` [Example 88, 2-[1-(3-Chloro-4-hydroxy-5-methoxy-phenyl)-meth-(Z)-ylidene]-6-(4-(difluoromethoxy)phenyl)-imidazo[2,1-b]thiazol-3-one] are 14 nM and 0.6 nM.
Take `COc1cc(/C=c2\sc3nc(-c4cccc(N5CCOCC5)c4)cn3c2=O)cc(Cl)c1O` [Example 89, 2-[1-(3-Chloro-4-hydroxy-5-methoxy-phenyl)-meth-(Z)-ylidene]-6-(3-morpholinophenyl)-imidazo[2,1-b]thiazol-3-one]: the IC50 in experiment [1] was 356 nM; in experiment [2], 24 nM.
On to `COc1cc(/C=c2\sc3nc(-c4ccc(N5CCCC5)cc4)cn3c2=O)cc(Cl)c1O` [Example 90, 2-[1-(3-Chloro-4-hydroxy-5-methoxy-phenyl)-meth-(Z)-ylidene]-6-(4-(pyrrolidin-1-yl)phenyl)-imidazo[2,1-b]thiazol-3-one], for which the IC50 in experiment [1] is 16 nM; in experiment [2], 37 nM.
On to `CCN(CC)c1ccc(-c2cn3c(=O)/c(=C/c4cc(Cl)c(O)c(OC)c4)sc3n2)cc1` [Example 91, 2-[1-(3-Chloro-4-hydroxy-5-methoxy-phenyl)-meth-(Z)-ylidene]-6-(4-(diethylamino)phenyl)-imidazo[2,1-b]thiazol-3-one], for which the IC50 in experiment [1] was 184 nM; in experiment [2], 20 nM.
The corresponding values for `COc1cc(/C=c2\sc3nc(-c4ccc(N5CCOCC5)cc4)cn3c2=O)cc(Cl)c1O` [Example 92, 2-[1-(3-Chloro-4-hydroxy-5-methoxy-phenyl)-meth-(Z)-ylidene]-6-(4-morpholinophenyl)-imidazo[2,1-b]thiazol-3-one] are 482 nM and 39 nM.
For `COc1cc(/C=c2\sc3nc(-c4ccc(N(C)C)cc4)cn3c2=O)cc(Cl)c1O` [Example 93, 2-[1-(3-Chloro-4-hydroxy-5-methoxy-phenyl)-meth-(Z)-ylidene]-6-(4-(dimethylamino)phenyl)-imidazo[2,1-b]thiazol-3-one], in that order: 29 nM and 30 nM.
With `COc1cc(/C=c2\sc3nc(-c4cccc(N5CCCC5=O)c4)cn3c2=O)cc(Cl)c1O` [Example 94, 2-[1-(3-Chloro-4-hydroxy-5-methoxy-phenyl)-meth-(Z)-ylidene]-6-[3-(2-oxo-pyrrolidin-1-yl)-phenyl]-imidazo[2,1-b]thiazol-3-one], the IC50 came out at 3890 nM in experiment [1] and 42 nM in experiment [2].
For `COc1cc(/C=c2\sc3nc(-c4cccc(OCCOCCOCCF)c4)cn3c2=O)cc(Cl)c1O` [Example 95, 2-[1-(3-Chloro-4-hydroxy-5-methoxy-phenyl)-meth-(Z)-ylidene]-6-(3-{2-[2-(2-fluoro-ethoxy)-ethoxy]-ethoxy}-phenyl)-imidazo[2,1-b]thiazol-3-one], in that order: 2150 nM and 28 nM.
Regarding `COc1cc(/C=c2\sc3nc(-c4ccc(C(=O)O)cc4)cn3c2=O)cc(Cl)c1O` [Example 98, 4-{2-[1-(3-Chloro-4-hydroxy-5-methoxy-phenyl)-meth-(Z)-ylidene]-3-oxo-2,3-dihydro-imidazo[2,1-b]thiazol-6-yl}-benzoic acid], the IC50 in experiment [1] turned out to be 1850 nM; in experiment [2], 21 nM.
For `COc1ccc(-c2cn3c(=O)/c(=C/c4cc(Cl)c(O)c(OC)c4)sc3n2)cc1OC` [Example 99, 2-[1-(3-Chloro-4-hydroxy-5-methoxy-phenyl)-meth-(Z)-ylidene]-6-(3,4-dimethoxy-phenyl)-imidazo[2,1-b]thiazol-3-one], in that order: 325 nM and 14 nM.
For `COc1cc(/C=c2\sc3nc(-c4ccc5c(c4)OCCO5)cn3c2=O)cc(Cl)c1O` [Example 100, 2-[1-(3-Chloro-4-hydroxy-5-methoxy-phenyl)-meth-(Z)-ylidene]-6-(2,3-dihydro-benzo[1,4]dioxin-6-yl)-imidazo[2,1-b]thiazol-3-one], in that order: 1060 nM and 9 nM.
In the case of `COc1cc(/C=c2\sc3nc(-c4ccc(C(N)=O)cc4)cn3c2=O)cc(Cl)c1O` [Example 101, 4-{2-[1-(3-Chloro-4-hydroxy-5-methoxy-phenyl)-meth-(Z)-ylidene]-3-oxo-2,3-dihydro-imidazo[2,1-b]thiazol-6-yl}-benzamide], the IC50 in experiment [1] is 792 nM; in experiment [2], 2 nM.
For `COc1cc(/C=c2\sc3nc(-c4ccc5c(c4)CC(=O)N5)cn3c2=O)cc(Cl)c1O` [Example 102, 5-{2-[1-(3-Chloro-4-hydroxy-5-methoxy-phenyl)-meth-(Z)-ylidene]-3-oxo-2,3-dihydro-imidazo[2,1-b]thiazol-6-yl}-1,3-dihydro-indol-2-one], in that order: 226 nM and 12 nM.
For the molecule `COc1cc(/C=c2\sc3nc(-c4ccc(NC(C)=O)cc4)cn3c2=O)cc(Cl)c1O` [Example 103, N-(4-{2-[1-(3-Chloro-4-hydroxy-5-methoxy-phenyl)-meth-(Z)-ylidene]-3-oxo-2,3-dihydro-imidazo[2,1-b]thiazol-6-yl}-phenyl)-acetamide], the IC50 in experiment [1] is 1160 nM; in experiment [2], 24 nM.
The corresponding values for `COc1cc(/C=c2\sc3nc(-c4cccc(C(=O)O)c4)cn3c2=O)cc(Cl)c1O` [Example 104, 3-{2-[1-(3-Chloro-4-hydroxy-5-methoxy-phenyl)-meth-(Z)-ylidene]-3-oxo-2,3-dihydro-imidazo[2,1-b]thiazol-6-yl}-benzoic acid] are over 10000 nM and 19 nM.
For `COc1cc(/C=c2\sc3nc(-c4c(F)cccc4F)cn3c2=O)cc(Cl)c1O` [Example 105, 2-[1-(3-Chloro-4-hydroxy-5-methoxy-phenyl)-meth-(Z)-ylidene]-6-(2,6-difluoro-phenyl)-imidazo[2,1-b]thiazol-3-one], in that order: 5550 nM and 13 nM.
With `COc1cc(/C=c2\sc3nc(-c4cccc(C(=O)NCCF)c4)cn3c2=O)cc(Cl)c1O` [Example 106, 3-{2-[1-(3-Chloro-4-hydroxy-5-methoxy-phenyl)-meth-(Z)-ylidene]-3-oxo-2,3-dihydro-imidazo[2,1-b]thiazol-6-yl}-N-(2-fluoro-ethyl)-benzamide], the IC50 stood at 1080 nM in experiment [1] and 8 nM in experiment [2].
The corresponding values for `CCCNC(=O)c1cccc(-c2cn3c(=O)/c(=C/c4cc(Cl)c(O)c(OC)c4)sc3n2)c1` [Example 107, 3-{2-[1-(3-Chloro-4-hydroxy-5-methoxy-phenyl)-meth-(Z)-ylidene]-3-oxo-2,3-dihydro-imidazo[2,1-b]thiazol-6-yl}-N-propyl-benzamide] are 2630 nM and 3 nM.
The corresponding values for `CNC(=O)c1cccc(-c2cn3c(=O)/c(=C/c4cc(Cl)c(O)c(OC)c4)sc3n2)c1` [Example 108, 3-{2-[1-(3-Chloro-4-hydroxy-5-methoxy-phenyl)-meth-(Z)-ylidene]-3-oxo-2,3-dihydro-imidazo[2,1-b]thiazol-6-yl}-N-methyl-benzamide] are 395 nM and 4 nM.

The values above are taken from US20150157739A1, “Imidazo[2,1]thiazol-3-one derivatives” (Hoffmann-La Roche Inc., priority 2012, published 2015).
